Columns and labels:
GABAA receptor = assay: [3H]-GABA radioligand binding assay, GABAA binding (in the presence of baclofen); conditions: inhibition of specific GABAA binding to rat synaptic membranes; [³H]-GABA 10 nM, baclofen 100 µM; read-out: IC₅₀ (nM) GABAA
Procedure: Male rats were killed by decapitation.
The final tissue was resuspended in fresh buffer for assay and transferred in 0.8 ml aliquots to microtubes (0.5 - 1.0 mg protein.tube).

GABAB receptor = GABAB receptor (Rattus norvegicus, UniProt Q9Z0U4); assay: biochemical
Sequence of GABAB receptor (Q9Z0U4 17-960 limits assumed): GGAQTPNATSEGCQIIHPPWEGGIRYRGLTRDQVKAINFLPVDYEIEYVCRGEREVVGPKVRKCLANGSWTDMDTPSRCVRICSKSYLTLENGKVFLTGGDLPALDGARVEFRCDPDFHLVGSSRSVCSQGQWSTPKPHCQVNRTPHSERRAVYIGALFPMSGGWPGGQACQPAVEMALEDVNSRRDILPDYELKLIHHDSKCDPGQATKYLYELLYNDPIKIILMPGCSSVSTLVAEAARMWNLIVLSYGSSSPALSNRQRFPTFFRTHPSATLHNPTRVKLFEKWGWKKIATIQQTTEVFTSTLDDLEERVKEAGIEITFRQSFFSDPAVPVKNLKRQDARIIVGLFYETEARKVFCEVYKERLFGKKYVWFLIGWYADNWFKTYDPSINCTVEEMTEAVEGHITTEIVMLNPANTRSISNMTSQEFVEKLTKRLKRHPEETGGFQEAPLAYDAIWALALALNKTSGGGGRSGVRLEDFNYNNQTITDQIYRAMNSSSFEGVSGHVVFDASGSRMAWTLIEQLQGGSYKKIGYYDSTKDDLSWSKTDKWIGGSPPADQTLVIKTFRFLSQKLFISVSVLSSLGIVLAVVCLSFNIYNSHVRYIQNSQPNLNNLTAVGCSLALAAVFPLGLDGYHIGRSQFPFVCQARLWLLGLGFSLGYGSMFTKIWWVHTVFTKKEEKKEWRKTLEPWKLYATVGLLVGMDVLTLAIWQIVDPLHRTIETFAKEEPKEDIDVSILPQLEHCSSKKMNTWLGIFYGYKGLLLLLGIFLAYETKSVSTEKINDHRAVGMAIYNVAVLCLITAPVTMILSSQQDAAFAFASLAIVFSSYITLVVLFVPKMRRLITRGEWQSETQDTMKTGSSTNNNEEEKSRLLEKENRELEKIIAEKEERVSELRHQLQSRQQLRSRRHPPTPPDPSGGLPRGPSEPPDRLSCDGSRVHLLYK
Sequence of GABAB receptor (O88871 41-940 partner): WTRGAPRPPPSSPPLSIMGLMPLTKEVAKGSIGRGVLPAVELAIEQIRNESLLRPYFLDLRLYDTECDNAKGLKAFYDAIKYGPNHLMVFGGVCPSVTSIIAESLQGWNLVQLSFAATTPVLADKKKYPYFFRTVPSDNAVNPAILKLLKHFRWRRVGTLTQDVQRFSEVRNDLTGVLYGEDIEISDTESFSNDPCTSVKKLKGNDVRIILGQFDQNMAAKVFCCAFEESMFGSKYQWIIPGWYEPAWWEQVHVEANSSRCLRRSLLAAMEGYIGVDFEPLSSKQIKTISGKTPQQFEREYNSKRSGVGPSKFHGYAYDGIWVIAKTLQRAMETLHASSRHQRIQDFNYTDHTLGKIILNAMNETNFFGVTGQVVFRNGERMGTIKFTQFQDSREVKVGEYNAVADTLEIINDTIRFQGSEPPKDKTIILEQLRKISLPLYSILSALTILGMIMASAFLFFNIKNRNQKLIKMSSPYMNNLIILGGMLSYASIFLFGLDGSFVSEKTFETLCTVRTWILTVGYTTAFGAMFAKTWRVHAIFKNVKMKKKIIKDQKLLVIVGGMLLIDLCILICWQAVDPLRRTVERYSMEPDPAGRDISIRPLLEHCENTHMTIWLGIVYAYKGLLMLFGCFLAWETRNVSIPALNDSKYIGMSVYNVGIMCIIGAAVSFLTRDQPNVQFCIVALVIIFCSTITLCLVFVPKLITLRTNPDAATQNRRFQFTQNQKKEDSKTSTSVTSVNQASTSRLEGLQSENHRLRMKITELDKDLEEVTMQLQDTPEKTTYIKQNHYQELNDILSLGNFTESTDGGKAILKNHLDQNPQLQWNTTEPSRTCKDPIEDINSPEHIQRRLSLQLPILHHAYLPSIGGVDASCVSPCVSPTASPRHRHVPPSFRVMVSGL
Procedure: Male rats were killed by decapitation. […] The homogenate was centrifuged at 1000 g to give a crude nuclear pellet (P₁) and a supernatant fraction enriched in myelin, synaptosomes and mitochrondria. The supernatant was collected and recentrifuged for 20 minutes at 20,000 g. The resulting pellet (P₂) was lysed by resuspension in distilled water and the mixture centrifuged for 20 minutes at 8,000 g. The supernatant was used to rinse off the upper layer of the pellet with the aid of a Pasteur pipette. The combined suspension was centrifuged for 20 minutes at 48,000 g. The final crude synaptic membranes were washed twice with distilled water and were either resuspended in buffer for further washing prior to use as fresh tissue or were stored frozen at -20°C. […]
[³H]-GABA (10 nM final concentrations 65 Ci/mmol) was added to each tube with or without varying concentrations of unlabelled test compound (final volume 1.0 ml). […] GABAB binding was determined by using ³H-GABA in the presence of isoguvacine (40 µM), a GABAA receptor ligand. […]
Non-specific binding was subtracted from the total amount of radioactivity bound in the absence of any drug to yield the amount of ligand specifically bound. The amount of radioactivity specifically bound at a given concentration of non-radioactive drug was expressed as a percentage of the total ligand specifically bound.

With CP(=O)(O)CCCN [Example 1, 3-(aminopropyl)methyl phosphinic acid] as the compound, how does the IC50 (GABAA receptor) read?
Its IC50 is 23000 nM.

Which results are given for NCCC[PH](=O)O [3-aminopropyl phosphinic acid]?
IC50 (GABAA receptor): 420 nM; IC50 (GABAB receptor): 1 nM
